Columns and labels:
[1] = system: A549 human lung adenocarcinoma cells; conditions: cited from earlier work
[2] = system: normal human lung fibroblasts; conditions: cited from earlier work
[3] = system: human tumor cells including squamous cell carcinoma and melanoma; conditions: squamous cell carcinoma and melanoma among types; cited from earlier work
[4] = system: PC-3 cells; experiment: Hoechst 33258 staining of apoptotic cells, fluorescent microscope; format: cell-based, human; conditions: oleandrin plus radiation versus any other treated or control population
Excerpt: In addition, the control cells and the experimental cells were stained with a fluorescent dye, Hoechst 33258, that binds to fragmented DNA. The PC-3 cells were observed under a fluorescent microscope.

[5] = system: PC-3 cells; experiment: Effect of duration of oleandrin exposure on radiosensitivity (colony survival, 3 Gy); format: cell-based, human
Method: The magnitude of radiosensitization depended on duration of exposure of cells to oleandrin prior to radiation. PC-3 cells were incubated in the presence of 0.05 μg/ml oleandrin for 1-24 hours. After oleandrin treatment, cells were irradiated with 3 Gy radiation and plated as in Example 1. Colonies were counted after 12 days and percent surviving fractions were plotted. […] Cell survival after 3 Gy radiation only was 50% compared to 30% after 3 Gy radiation plus 0.05 μg/ml oleandrin. Values shown are means±SE for three independent experiments. The average survival levels were fit by least squares regression using a linear quadratic model.

[6] = system: caspase-3; experiment: Caspase-3 activation by western blotting; format: cell-based, human
Method: To determine whether caspase-3 activation was involved in the oleandrin-induced enhancement of PC-3 cell radioresponse, cells were treated with 5 Gy or 0.05 μg/ml oleandrin or a combination of both treatments for 24 hours. Cells were assayed for caspase-3 activation 24 hours after treatment using western blotting. cells were lysed in a buffer containing 50 mM Tris-HCl (pH 8), 450 mM NaCl, 1% triton X-100, 5 mM EDTA, 1% (v/v) of protease inhibitor cocktail, and 1% (v/v) phosphatase inhibitor cocktails I and II (Sigma, St. Louis, Mo.). Protein ([…] per lane) was separated by sodium dodecyl sulfate-polyacrylamide gel electrophoresis (“SDS-PAGE”) and transferred to a polyvinylidene difluoride (“PVDF”) membrane (Bio-Rad Laboratories, Hercules, Calif.). The membrane was blocked by 5% non-fat dry milk in Tris-buffered saline and 0.1% Tween-20 (“TBS-T”) and before incubation with a designated primary antibody (Pharmingen, San Diego, Calif.). After washing the membrane with TBS-T, it was incubated in secondary antibody and the immunoreaction was visualized using an ECL western blotting kit (Amersham Corp., Arlington Heights, Ill.).

[7] = system: PC-3 cells; experiment: Apoptosis by TUNEL assay and flow cytometry; format: cell-based, human
Method: PC-3 cells were incubated with 0.05 μg/ml oleandrin for 24 hours, irradiated at 2 Gy, or both. The control cells were untreated. The medium containing oleandrin was removed, fresh medium was added, and 24 hours later the apoptotic index was determined.
Apoptosis was determined by staining and flow cytometry analysis. The terminal deoxynucleotidyltransferase (“TdT”) dUTP nick end labeling (“TUNEL”) assay to identify the DNA fragmentation (APO-DIRECT kit, Pharmingen, San Diego, Calif.) was performed according to the manufacturer's instructions. Briefly, cells (2×10^6) were fixed in 1% paraformaldehyde and washed in PBS. Cells were suspended in 70% ethanol and stored at −20° C. until use. Re-suspended cells were stained in a solution containing TdT and FITC-dUTP and incubated overnight at room temperature in the dark. They were then rinsed and re-suspended in 0.5 ml propidium iodide/RNase A solution and analyzed by flow cytometry.

[8] = system: PC-3 cells; experiment: Clonogenic cell survival with caspase-3 inhibitor, oleandrin and radiation; format: cell-based, human; conditions: for Survival of cells (%) following radiation of 2 Gy / Survival of cells (%) following radiation of 6 Gy / Survival of cells (%) following radiation of O Gy: oleandrin 0.05 μg/ml 24 hours, ZDEVD-FMK 100 μM added 2 hours before oleandrin; for Survival of cells (%) following radiation of 2 Gy: control 74.6 ± 3.4; for Survival of cells (%) following radiation of 6 Gy: control 7.8 ± 0.6; for Survival of cells (%) following radiation of O Gy: no radiation, percent control, mean±SE
Method: PC-3 cells were incubated with 0.05 μg/ml oleandrin for 24 hours before being irradiated with 2 or 6 Gy. […] Clonogenic cell survival was then determined. Colonies were counted and the survival of cells (percent control) was calculated. Data are presented as mean±SE from three experiments.

[9] = system: PC-3 cells; experiment: Colony forming ability of PC-3 cells after oleandrin and graded γ-irradiation; format: cell-based, human
Method: The human prostate carcinoma cell line PC-3 was obtained from the American Type Culture Collection and maintained in RPMI 1640 medium supplemented with 10% fetal calf serum, 10,000 U/ml of penicillin-streptomycin, and 2 mM L-glutamine. Cells were grown as monolayers in 75-cm^2 flasks and maintained in a humidified 5% CO2/95% air atmosphere at 37.8° C.
[…] graded doses (2, 4 or 6 Gy) of γ-rays using a ^137Cs source (3.7 Gy/min) and assayed for colony forming ability by replating them in specified numbers into 100-mm dishes containing drug-free media. After 12 days of incubation, cells were stained with 0.5% crystal violet in absolute ethanol, and colonies with more than 50 cells were counted. The average survival levels were fit by least squares regression using a linear quadratic model. Survival curves were constructed with normalized values for the cytotoxicity induced by oleandrin alone. Oleandrin by itself reduced plating efficiency from the 95% control value to 21%.
The untreated control samples are represented by the open circles and the oleandrin treated samples are represented by the filled circles. Values shown are the means±SE for three independent experiments. The enhancement factor at the cell survival fraction of 0.1 was 1.32.

[10] = system: NF-kB; conditions: cited from earlier work
[11] = system: murine tumor cell lines; conditions: cited from earlier work
[12] = system: human tumor cell lines; conditions: cited from earlier work

## C[C@@H]1O[C@@H](O[C@H]2C[C@@H](O)[C@]3(CO)[C@H]4[C@H](O)C[C@]5(C)[C@@H](C6=CC(=O)OC6)CC[C@]5(O)[C@@H]4CC[C@]3(O)C2)[C@H](O)[C@H](O)[C@H]1O [Ouabain, ouabain]
[1]
  in vitro radiosensitivity: enhance in vitro radiosensitivity
[2]
  modification of radioresponse: ineffective
[3]
  radiosensitization: radiosensitize

## CO[C@H]1C[C@H](O[C@H]2CC[C@@]3(C)[C@H](CC[C@@H]4[C@@H]3CC[C@]3(C)[C@@H](C5=CC(=O)OC5)[C@@H](OC(C)=O)C[C@]43O)C2)O[C@@H](C)[C@@H]1O [Oleandrin, oleandrin]
[4]
  apoptotic cells observed (Hoechst 33258): More apoptotic cells
[5]; 0.05 μg/ml oleandrin 1-24 hours, 3 Gy
  radiosensitizing effect versus duration of exposure: increased as the duration of exposure to oleandrin increased up to 24 hours
[5]; 3 Gy radiation plus 0.05 μg/ml oleandrin, exposure 1 hour, 3 Gy only 50%
  cell survival: 30%
[6]; 0.05 μg/ml oleandrin alone, 24 hours, assayed 24 hours after treatment
  activation of caspase-3: effective
[6]; 0.05 μg/ml oleandrin combined with 5 Gy
  level of caspase-3 activation: higher
[7]; 0.05 μg/ml oleandrin 24 hours alone, measured 24 hours later, control 2.1±0.4
  percentage of apoptotic cells: 63.5±6.1%
[7]; 0.05 μg/ml oleandrin 24 hours plus 2 Gy, 2 Gy alone 8.2±3.4%
  percentage of apoptotic cells: 85.8±5.3%
[7]; oleandrin 0.05 μg/ml plus 2 Gy
  combination effect on apoptosis versus individual treatments: more than the additive effects
[8]
  Survival of cells (%) following radiation of 2 Gy: 55.5 ± 1.9%
  Survival of cells (%) following radiation of 6 Gy: 3.1 ± 0.8%
  Survival of cells (%) following radiation of O Gy: 88.9 ± 2.9%
[9]; oleandrin 0.025 μg/ml
  cytotoxicity by itself: non-cytotoxic
  influence on radiosensitization: no significant influence
[9]; oleandrin 0.05 μg/ml 24 hours, then 2, 4 or 6 Gy γ-rays
  enhancement factor at the cell survival fraction of 0.1: 1.32
[9]; oleandrin 0.05 μg/ml for 24 hours, by itself (no radiation), control value 95%
  plating efficiency: 21%
[10]
  activation of NF-kB: inhibits activation
[11]
  induction of apoptosis: not in murine tumor cell lines
[12]
  induction of apoptosis: induces apoptosis

## ZDEVD-FMK [Z-DEVD-FMK]
[8]
  Survival of cells (%) following radiation of 2 Gy: 77.8 ± 3.2%
  Survival of cells (%) following radiation of 6 Gy: 8.6 ± 2.1%
  Survival of cells (%) following radiation of O Gy: 97.4 ± 1.7%
[8]; ZDEVD-FMK 100 μM with oleandrin 0.05 μg/ml
  effect on oleandrin-induced enhancement of radiation response: abolished

Reference: patent publication US20050112059A1, “Enhancement of radiotherapy by an exogenous cardiac glycoside” (Phoenix Biotechnology, Inc., priority 2003, published 2005)
